Laboratory results taken from patent publication US10588972B2, “Phthalocyanine probes and uses thereof” (LI-COR, INC., priority 2014, dated 2020).

Columns and labels:
Type in all cases: cell-based
HTB-186 cells [1] = experiment: Viability, cell number and microscopy morphology at 20 h post irradiation (Example 10)
Procedure: This example illustrates the ability of IRDye® 700DX small molecule conjugates to induce apoptosis in cells, e.g., cancer cells. In this study HTB-186 cells (a desmoplastic cerebellar medulloblastoma cell line) were treated with IRDye® 700DX small molecule conjugates (IRDye® 700DX labeled chlorotoxin, anti-EGFR Affibody®, RGD peptide and EGF ligand). Apoptosis was measured by evaluating caspase 3/7 activity and mitochondrial membrane potential. Apoptosis can be characterized by a variety of cell morphological and biochemical changes including membrane blebbing, cell shrinkage, alteration of membrane asymmetry and permeability, and/or condensation of chromatin and nucleus (Coleman et al., Nat Cell Biol, 2001, 3(4):339-45, Bortner and Cidlowski, Biochem Pharmacol, 1998, 56(12):1549-59; van Engeland et al., Experimental Cell Research, 1997, 235:421-430).
Microscopy images of cells in petri-dishes were captured at 20 h post irradiation. The images were captured in DIC and 700 nm to visualize the probe, and composite images were generated (DIC+700 nm) to visualize the overlay.
(§1) To determine whether the treated cells are undergoing apoptosis, a caspase 3/7 assay and mitochondrial potential assay were performed. […] Table 8 below provides cells number, % viability, JC-1% shift, and % late apoptotic and dead cells as determined by caspase 3/7 assay.

HTB-186 cells [2] = experiment: JC-1 mitochondrial membrane potential assay (Example 10, Table 8); conditions: 32 J/cm^2, probe about 5 hours, 20 hours post irradiation; 700DX-RGD and 700DX-EGF 500 nM
Procedure: (§2) This example illustrates the ability of IRDye® 700DX small molecule conjugates to induce apoptosis in cells, e.g., cancer cells. In this study HTB-186 cells (a desmoplastic cerebellar medulloblastoma cell line) were treated with IRDye® 700DX small molecule conjugates (IRDye® 700DX labeled chlorotoxin, anti-EGFR Affibody®, RGD peptide and EGF ligand). Apoptosis was measured by evaluating caspase 3/7 activity and mitochondrial membrane potential. […]
In this study a mitochondrial membrane potential assay was performed on cells from treatments 1-8 to determine whether the treated cells underwent apoptosis. […] As JC-1 dye accumulated in mitochondria, its fluorescence emission shifts from green (about 529 nm) to red (about 590 nm). The presence of red fluorescence due to JC-1 aggregate formation corresponds to regions of high mitochondrial polarization. Depolarized mitochondria are indicated by green fluorescence of the JC-1 monomers. A detectable decrease in the red/green fluorescence intensity ratio indicates mitochondrial depolarization, and thus, apoptosis. In a membrane potential assay, cells are incubated with the JC-1 dye and fluorescence is detected by, for example, flow cytometry, fluorescence microscopy, and fluorescence-based image cytometry. […]

HTB-186 cells [3] = experiment: Caspase 3/7 assay (Example 10, Table 8); conditions: 32 J/cm^2, probe about 5 hours, 20 hours post irradiation; 700DX-RGD and 700DX-EGF 500 nM
Procedure: as §2
The caspase 3/7 assay was used to measure caspase 3/7 activity in the cells from the treatments listed above. […] Upon activation, the caspases cleave the substrate, and in turn, a fluorescence signal is emitted. […] The fluorescence can be detected by, for example, flow cytometry, fluorescence microscopy, and fluorescence-based image cytometry.
as §1

A431 cells = experiment: VB-48 assay: vitality, viability and necrosis of treatments 1-10 (Table 3)
Procedure: Briefly, A431 cells were labeled with respective probes for specific treatments (listed below); cells were rinsed and evaluated for labeling. The test include the following treatments: […], treatments 3-4 of EGF-IRDye® 700DX at 0.5 μM and radiation, treatments 5-6 of IRDye® 700DX NHSe at 5 μM and radiation, treatments 7-8 of panitumumab-IRDye® 700DX at about 0.1 μM and radiation, treatment 9 of a negative control with no probe and no irradiation, and treatment 10 of RGD-IRDye® 700DX and no irradiation. The probes were incubated for about 10 minutes and with a longer period of about 20 minutes for the RGD probe. The cells were monitored with microscopy and morphology was examination 24 hours post treatment.
Low binding was expected for the RGD probe due to the low level of integrin receptors on A431 cells. […] By 3 hours post-irradiation all treatments except RGD (Treatment 1) show significant cytotoxicity. Vitality, viability and necrosis assays such as a VB-48 assay and JC-1 assay were performed.

[4] = irradiated (I) 32 J/cm^2, RGD 0.5 μM, EGF 0.5 μM, NHSe 5 μM, Pan ~0.1 μM
[5] = no irradiation (NI), RGD-700DX 0.5 μM

C[Si](C)(CCC[N+](CCCS(=O)(=O)O)(CCCS(=O)(=O)O)CCCS(=O)(=O)O)O[Si-2]123(O[Si](C)(C)CCC[N+](CCCS(=O)(=O)O)(CCCS(=O)(=O)O)CCCS(=O)(=O)O)n4c5c6ccccc6c4N=C4c6cccc(OCCCOC(=O)NCCCCCC(=O)NCCCC[C@@H]7NC(=O)[C@@H](Cc8ccccc8)NC(=O)[C@H](CC(=O)O)NC(=O)CNC(=O)[C@H](CCCNC(=N)N)NC7=O)c6C(=[N+]41)N=c1c4ccccc4c(n12)=NC1=[N+]3C(=N5)c2ccccc21 [RGD-700DX]
cell morphology (HTB-186 cells [1]; 32 J/cm^2, 20 h post irradiation): appeared rounded and smaller
Cell # (HTB-186 cells [1]; 32 J/cm^2, probe about 5 hours, 20 hours post irradiation, 700DX-RGD and 700DX-EGF 500 nM): 0.6E6
JC-1 % shift (HTB-186 cells [2]): 44%
Caspase 3 % late apoptotic + dead cells (HTB-186 cells [3]): 57%
% Healthy (A431 cells; [4]): 91.6%
% Necrotic (A431 cells; [4]): 7%
Cells/mL (A431 cells; [4]): 6.6 × 10^5 Cells/mL
Low % Vitality (A431 cells; [4]): 2%
% Healthy (A431 cells; [5]): 90.8%
% Necrotic (A431 cells; [5]): 5%
Cells/mL (A431 cells; [5]): 5.8 × 10^5 Cells/mL
Low % Vitality (A431 cells; [5]): 4%
